{"source": "patent US20190307749A1", "about": "“Mitochondria-Division Inhibitor 1 Protects Against Amyloid-B Induced Mitochondrial Fragmentation and Synaptic Damage in Alzheimer's Disease” (Texas Tech University System, priority 2018, published 2019)", "key": {"N2a cells [1]": {"system": "N2a cells", "assay": "Soluble Aβ42 levels by sandwich ELISA", "assay_type": "cell-based, mouse", "details": "vs N2a cells treated only with Aβ42", "method": "(§1) Tissue culture: The N2a cells were grown for 3 days in a serum-free medium (1:1 mixture of DMEM and OptiMEM, plus penicillin and streptomycin [Invitrogen, Carlsbad, Calif., USA]) until the cells developed neuronal processes.\nBriefly, protein lysates from untreated control N2a cells and lysates from 4 treatment groups were homogenized in a Tris-buffered saline (pH 8.0) containing protease inhibitors ([…] pepstatin A, aprotinin, phophsoramidon, and leupeptin; 0.5 mM phenylmethanesulfonyl fluoride and 1 mM ethyleneglycol-bis(flaminoethyl ether)-NN tetraacetic acid). Samples were sonicated briefly and centrifuged at 10,000 g for 20 min at 4° C. The soluble fraction was used to determine the soluble Aβ by ELISA. For each sample, Aβ1-40 and Aβ1-42 were measured with commercial colorimetric ELISA kits (Biosource International, Camarillo, Calif., USA) that were specific for each species. A 96-well plate reader was used, following the manufacturer's instructions. Each sample was run in duplicate. Protein concentrations of the homogenates were determined following the […], and Aβ was expressed as pg Aβ/mg protein."}, "N2a cells [2]": {"system": "N2a cells", "assay": "H2O2 production (Amplex Red H2O2 assay)", "assay_type": "cell-based, mouse", "method": "as §1\nMitochondrial functional assays. H2O2 production: Using an Amplex® Red H2O2 assay kit (Molecular Probes, Eugene, Oreg., USA), H2O2 production was measured using cell pellets, as described in Manczak and Reddy. Briefly, H2O2 production was measured in the protein lysates prepared from cell pellets of control untreated N2a cells and 4 treatment groups (FIG. 1). A BCA protein assay kit (Pierce Biotechnology) was used to estimate protein concentration. The reaction mixture contained mitochondrial proteins (μg/μl), Amplex Red reagents (50 μM), horseradish peroxidase (0.1 U/ml), and a reaction buffer (1×). The mixture was incubated at room temperature for 30 minutes, followed by spectrophotometer readings of fluorescence (570 nm). Finally, H2O2 production was determined, using a standard curve equation expressed in nmol/μg mitochondrial protein."}, "N2a cells [3]": {"system": "N2a cells", "assay": "Lipid peroxidation assay (4-hydroxy-2-nonenol, HNE-His ELISA)", "assay_type": "cell-based, mouse", "method": "as §1\nLipid peroxidation assay: Lipid peroxidates are unstable indicators of oxidative stress in the brain. The final product of lipid peroxidation is 4-hydroxy-2-nonenol (HNE), which was measured in the N2a cell lysates prepared from cell pellets of control and treatment groups. The inventors used an HNE-His ELISA kit (Cell BioLabs, Inc., San Diego, Calif., USA), as described in Manczak and Reddy. Briefly, freshly prepared protein as added to a 96-well protein binding plate and incubated overnight at 4° C. The protein then washed 3 times with a buffer. After the last wash, the anti-HNE-His antibody was added to the protein in the wells, incubated for 2 hours at room temperature, and then washed again 3 times. The samples were then incubated with a secondary antibody conjugated with peroxidase for 2 hours at room temperature, followed by incubation with an enzyme substrate. Optical density was measured (at 450 nm) to quantify the level of HNE."}, "N2a cells [4]": {"system": "N2a cells", "assay": "Cytochrome c oxidase activity", "assay_type": "cell-based, mouse", "method": "as §1\nCytochrome c oxidase activity: Cytochrome oxidase activity was measured in each of the 5 groups of N2a cells. Enzyme activity was assayed spectrophotometrically using a Sigma Kit (Sigma-Aldrich) following manufacturer's instructions. […] The decrease in absorbance at […] was recorded for 1-min reactions at 10-sec intervals. Cytochrome oxidase activity was measured according to the following formula: mU/mg total mitochondrial protein=(A/min sample−(A/min blank)×1.1 mg protein×21.84). The protein concentrations were determined following the BCA method."}, "N2a cells [5]": {"system": "N2a cells", "assay": "Cell viability (MTT assay)", "assay_type": "cell-based, mouse", "method": "as §1\nThe N2a cells from all 5 groups (4 treatment groups and 1 control group) were harvested, and their cell pellets were collected and used for quantitative real-time RT-PCR, immunoblotting analysis of mitochondrial and synaptic proteins, and mitochondrial functional assays for hydrogen peroxide production, lipid peroxidation, cytochrome c oxidase activity, and MTT determination. Isolated mitochondria from N2a cells from all 5 groups were used to determine mitochondrial ATP as described in Reddy et al.."}, "[6]": {"system": "mouse neuroblastoma (N2a) cells", "assay": "Quantitative real-time RT-PCR: mRNA expression of mitochondrial dynamics, biogenesis and synaptic genes", "assay_type": "cell-based", "details": "vs Aβ42 treated cells"}, "GTPase Drp1": {"system": "GTPase Drp1", "details": "by blocking the self-assembly of Drp1; reference [34]; cited from earlier work"}, "[7]": {"details": "Aβ42 6 hrs then Mdivi1 24 hrs (Aβ42+Mdivi1), vs untreated N2a cells"}, "[8]": {"details": "Mdivi1 24 hrs then Aβ42 6 hrs (Mdivi1+Aβ42), vs untreated N2a cells"}, "[9]": {"details": "Mdivi1 24 hrs or Aβ42 20 μM 6 hrs alone, vs untreated N2a cells"}, "[10]": {"details": "Aβ42 6 hrs then Mdivi1 24 hrs (Aβ42+Mdivi1)"}}, "note": "Entries after “also recorded” stand apart in the source; their conditions may differ."}
{"smiles": "COc1cc(-n2c(S)nc3ccccc3c2=O)c(Cl)cc1Cl", "note": "[Mdivi1, 3-(2,4-Dichloro-5-methoxyphenyl)-2,3-dihydro-2-thioxo-4(1H)-quinazolinone]", "values": [{"measurement": "Aβ42 levels", "setting": "N2a cells [1]; Aβ42 6 hrs then Mdivi1 24 hrs (Aβ42+Mdivi1, curative)", "result": "Significantly reduced; also recorded: significantly lower"}, {"measurement": "Aβ42 levels", "setting": "N2a cells [1]; Mdivi1 24 hrs then Aβ42 6 hrs (Mdivi1+Aβ42, preventive)", "result": "Significantly reduced; also recorded: significantly lower"}, {"measurement": "H2O2 levels", "setting": "N2a cells [2]; Aβ42 6 hrs then Mdivi1 24 hrs (Aβ42+Mdivi1), vs N2a+Aβ42 cells", "result": "significantly lower"}, {"measurement": "H2O2 levels", "setting": "N2a cells [2]; [7]", "result": "unchanged"}, {"measurement": "H2O2 levels", "setting": "N2a cells [2]; Mdivi1 24 hrs then Aβ42 6 hrs (Mdivi1+Aβ42), vs N2a+Aβ42 cells", "result": "significantly lower"}, {"measurement": "H2O2 levels", "setting": "N2a cells [2]; [8]", "result": "unchanged"}, {"measurement": "Lipid peroxidation levels (4-hydroxy-2-nonenol)", "setting": "N2a cells [3]; Aβ42 6 hrs then Mdivi1 24 hrs (Aβ42+Mdivi1), vs N2a cells treated only with Aβ42", "result": "Significantly lower"}, {"measurement": "Lipid peroxidation levels (4-hydroxy-2-nonenol)", "setting": "N2a cells [3]; [9]", "result": "significantly lower"}, {"measurement": "Lipid peroxidation levels (4-hydroxy-2-nonenol)", "setting": "N2a cells [3]; Mdivi1 24 hrs then Aβ42 6 hrs (Mdivi1+Aβ42), vs N2a cells treated only with Aβ42", "result": "Significantly lower"}, {"measurement": "Cytochrome oxidase activity", "setting": "N2a cells [4]; Aβ42 6 hrs then Mdivi1 24 hrs (Aβ42+Mdivi1), vs cells treated with Aβ42 alone", "result": "significantly increased"}, {"measurement": "Cytochrome oxidase activity", "setting": "N2a cells [4]; [7]", "result": "increased levels"}, {"measurement": "Cytochrome oxidase activity", "setting": "N2a cells [4]; [9]", "result": "increased levels"}, {"measurement": "Cytochrome oxidase activity", "setting": "N2a cells [4]; Mdivi1 24 hrs then Aβ42 6 hrs (Mdivi1+Aβ42), vs cells treated with Aβ42 alone", "result": "significantly increased"}, {"measurement": "Cytochrome oxidase activity", "setting": "N2a cells [4]; [8]", "result": "increased levels"}, {"measurement": "Cell viability", "setting": "N2a cells [5]; Aβ42 6 hrs then Mdivi1 24 hrs (Aβ42+Mdivi1), vs N2a+Aβ42", "result": "higher"}, {"measurement": "Cell viability", "setting": "N2a cells [5]; [9]", "result": "significantly higher"}, {"measurement": "Cell viability", "setting": "N2a cells [5]; Mdivi1 24 hrs then Aβ42 6 hrs (Mdivi1+Aβ42), vs N2a+Aβ42", "result": "higher"}, {"measurement": "Nrf2 mRNA fold change", "setting": "[6]; [10]", "result": 2.0, "unit": "fold"}, {"measurement": "PSD95 mRNA fold change", "setting": "[6]; [10]", "result": 8.6, "unit": "fold"}, {"measurement": "TFAM mRNA fold change", "setting": "[6]; [10]", "result": 2.9, "unit": "fold"}, {"measurement": "Mfn1 mRNA fold change", "setting": "[6]; Mdivi1 24 hrs then Aβ42 6 hrs (Mdivi1+Aβ42)", "result": 2.6, "unit": "fold"}, {"measurement": "GTPase Drp1 activity", "setting": "GTPase Drp1", "result": "inhibits"}]}
